Values quoted from earlier work as cited in patent publication US7238375B1, “Composition and method to promote human hair growth” (priority 2004, dated 2007).

Experiments:
[1] = target: T1, Type 1 5-alpha-reductase (Homo sapiens, UniProt P18405); conditions: application of copper ion to skin
T1 sequence (P18405 1-259): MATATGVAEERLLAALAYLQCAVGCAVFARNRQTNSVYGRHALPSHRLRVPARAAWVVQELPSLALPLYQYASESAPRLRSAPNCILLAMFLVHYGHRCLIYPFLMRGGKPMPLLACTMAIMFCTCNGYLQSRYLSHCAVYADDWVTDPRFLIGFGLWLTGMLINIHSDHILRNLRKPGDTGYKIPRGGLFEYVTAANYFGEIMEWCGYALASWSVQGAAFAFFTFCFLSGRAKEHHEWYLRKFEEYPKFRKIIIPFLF

[2] = target: T2, Type 2 5-alpha-reductase (Homo sapiens, UniProt P31213); conditions: application of copper ion to skin
T2 sequence (P31213 1-254): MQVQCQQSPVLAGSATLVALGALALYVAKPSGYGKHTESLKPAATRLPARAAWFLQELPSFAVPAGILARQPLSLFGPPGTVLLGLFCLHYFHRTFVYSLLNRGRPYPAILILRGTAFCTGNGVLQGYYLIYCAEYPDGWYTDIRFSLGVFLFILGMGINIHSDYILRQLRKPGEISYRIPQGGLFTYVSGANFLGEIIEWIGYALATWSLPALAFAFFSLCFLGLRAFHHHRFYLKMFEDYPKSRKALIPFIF

[3] = tested on: sheep; conditions: supplement in the diet of sheep
[4] = tested on: rats

| SMILES | concentration giving 50% reduction in activity of Type 1 5-alpha-reductase [1] | IC50 ([1]; read-out: concentration giving 50% reduction in activity of Type 1 5-alpha-reductase) [µM] | concentration giving 50% reduction in activity of Type 2 5-alpha-reductase [2] | IC50 ([2]; read-out: concentration giving 50% reduction in activity of Type 2 5-alpha-reductase) [µM] | effect on wool growth patterns [3] | effect on hair shafts [4] |
| --- | --- | --- | --- | --- | --- | --- |
| [Cu+2] [Copper ion] | 0.12 micrograms copper ion per milliliter | 1.9 | 1.2 micrograms copper ion per milliliter | 10.2 |  |  |
| N[C@@H](CS)C(=O)O [Cysteine] |  |  |  |  | significant modification in wool growth patterns | thicker hair shafts |
